Paper PMC2866172 (Journal of medicinal chemistry, 2010)

Assays:
[1] = PPB determination in pooled baboon plasma; details: pooled baboon plasma, 10 min room temperature, % unbound
[2] = Brain PET imaging in anesthetized baboons; details: for Blood-brain barrier penetration: healthy baboons, TAC, AUC and image
[3] = patients with inflamed meninges, single 3 g oral dose; cited from earlier work
[4] = Torso PET imaging in anesthetized baboons; details: for Calculated drug concentration in heart / Calculated drug concentration in kidney cortex / Calculated drug concentration in kidney medulla / Calculated drug concentration in liver / Calculated drug concentration in lung / Calculated drug concentration in plasma: calculated assuming 5 mg/kg dose, 17 kg baboon; for Concentration in heart / Concentration in kidney cortex / Concentration in kidney medulla / Concentration in liver / Concentration in lung / Concentration in plasma: baboon, i.v.

NC(=O)c1cnccn1 [PZA, pyrazinamide]
PPB (value expressed as % of free fraction in plasma) [1]: 91.32% | Blood-brain barrier penetration ([2]; i.v.): excellent penetration | CSF concentration of PZA [3]: 50 µg/mL

NN[11C](=O)c1ccncc1 [[^11C]INH]
Estimated concentration in whole brain, C30min ([2]; 30 min, estimated from baboon weight, 5 mg/kg dose, signal assumed intact drug): 2.54 µg/mL | Estimated concentration in whole brain, C60min ([2]; 60 min, estimated from baboon weight, 5 mg/kg dose, signal assumed intact drug): 2.11 µg/mL | Estimated concentration in whole brain, C90min ([2]; 90 min, estimated from baboon weight, 5 mg/kg dose, signal assumed intact drug): 1.75 µg/mL | Concentration in whole brain, C30min ([2]; baboon, i.v., 30 min): 0.00299 %ID/cc | Concentration in whole brain, C60min ([2]; baboon, i.v., 60 min): 0.00248 %ID/cc | Concentration in whole brain, C90min ([2]; baboon, i.v., 90 min): 0.00206 %ID/cc | Blood-brain barrier penetration ([2]; i.v.): higher initial brain penetration and tissue accumulation when compared to RIF | Calculated drug concentration in heart ([4]; 15 min): (8.72) µg/ml | Calculated drug concentration in kidney cortex ([4]; 15 min): (15.06) µg/ml | Calculated drug concentration in kidney medulla ([4]; 15 min): (18.94) µg/ml | Calculated drug concentration in liver ([4]; 15 min): (12.50) µg/ml | Calculated drug concentration in lung ([4]; 15 min): (7.72) µg/ml | Calculated drug concentration in plasma ([4]; 15 min): (3.76) µg/ml | Calculated drug concentration in heart ([4]; 30 min): (6.13) µg/ml | Calculated drug concentration in kidney cortex ([4]; 30 min): (9.26) µg/ml | Calculated drug concentration in kidney medulla ([4]; 30 min): (15.43) µg/ml | Calculated drug concentration in liver ([4]; 30 min): (9.71) µg/ml | Calculated drug concentration in lung ([4]; 30 min): (6.09) µg/ml | Calculated drug concentration in plasma ([4]; 30 min): (2.96) µg/ml | Calculated drug concentration in heart ([4]; 60 min): (3.74) µg/ml | Calculated drug concentration in kidney cortex ([4]; 60 min): (7.72) µg/ml | Calculated drug concentration in kidney medulla ([4]; 60 min): (16.37) µg/ml | Calculated drug concentration in liver ([4]; 60 min): (7.64) µg/ml | Calculated drug concentration in lung ([4]; 60 min): (4.42) µg/ml | Calculated drug concentration in plasma ([4]; 60 min): (2.05) µg/ml | Calculated drug concentration in heart ([4]; 90 min): (4.15) µg/ml | Calculated drug concentration in kidney cortex ([4]; 90 min): (8.54) µg/ml | Calculated drug concentration in kidney medulla ([4]; 90 min): (14.69) µg/ml | Calculated drug concentration in liver ([4]; 90 min): (6.91) µg/ml | Calculated drug concentration in lung ([4]; 90 min): (4.19) µg/ml | Calculated drug concentration in plasma ([4]; 90 min): (1.62) µg/ml | Concentration in heart ([4]; 15 min after administration): 0.0103 %ID/cc | Concentration in kidney cortex ([4]; 15 min after administration): 0.0177 %ID/cc | Concentration in kidney medulla ([4]; 15 min after administration): 0.0223 %ID/cc | Concentration in liver ([4]; 15 min after administration): 0.0147 %ID/cc | Concentration in lung ([4]; 15 min after administration): 0.0091 %ID/cc | Concentration in plasma ([4]; 15 min after administration): 0.00442 %ID/cc | Concentration in heart ([4]; 30 min after administration): 0.0072 %ID/cc | Concentration in kidney cortex ([4]; 30 min after administration): 0.0109 %ID/cc | Concentration in kidney medulla ([4]; 30 min after administration): 0.0181 %ID/cc | Concentration in liver ([4]; 30 min after administration): 0.0114 %ID/cc | Concentration in lung ([4]; 30 min after administration): 0.0072 %ID/cc | Concentration in plasma ([4]; 30 min after administration): 0.00348 %ID/cc | Concentration in heart ([4]; 60 min after administration): 0.0044 %ID/cc | Concentration in kidney cortex ([4]; 60 min after administration): 0.0091 %ID/cc | Concentration in kidney medulla ([4]; 60 min after administration): 0.0193 %ID/cc | Concentration in liver ([4]; 60 min after administration): 0.0090 %ID/cc | Concentration in lung ([4]; 60 min after administration): 0.0052 %ID/cc | Concentration in plasma ([4]; 60 min after administration): 0.00241 %ID/cc | Concentration in heart ([4]; 90 min after administration): 0.0049 %ID/cc | Concentration in kidney cortex ([4]; 90 min after administration): 0.0100 %ID/cc | Concentration in kidney medulla ([4]; 90 min after administration): 0.0173 %ID/cc | Concentration in liver ([4]; 90 min after administration): 0.0081 %ID/cc | Concentration in lung ([4]; 90 min after administration): 0.0049 %ID/cc | Concentration in plasma ([4]; 90 min after administration): 0.0019 %ID/cc
